According to patent publication US20230265059A1, “SOLID STATE FORMS OF 6-CARBOXY-2-(3, 5-DICHLOROPHENYL)-BENZOXAZOLE OF FORMULA-I AND PHARMACEUTICALLY ACCEPTABLE SALTS THEREOF” (NURAY CHEMICALS PRIVATE LIMITED, priority 2020, published 2023):

Assay: Drying of the hydrate form to remove water
Type: physicochemical
Settings: hydrate form having moisture content about 6.64%; drying at 55° C. temperature for 24 hours
Source text: The hydrate form of 6-carboxy-2-(3,5-dichlorophenyl)-benzoxazole meglumine of Formula-IA according to the present disclosure having moisture content in the range of about 3.5% to about 9% preferably about 5 to 7%. The hydrate form of 6-carboxy-2-(3,5-dichlorophenyl)-benzoxazole meglumine salt of Formula-IA having moisture up to 15 to 20% but the only 5 to 7% water is present in crystal lattice and the excess water molecule is present in surface of the Tafamidis meglumine crystal. […] The hydrate form of 6-carboxy-2-(3,5-dichlorophenyl)-benzoxazole meglumine salt of Formula-IA having moisture content about 6.64% and moisture content about 15% are resulting the same PXRD diffractogram. This confirms the water molecules up to moisture content about 6% is present in crystal lattice and the excess water is present in surface of the crystal. In an another embodiment, the present disclosure, the hydrate form of 6-carboxy-2-(3,5-dichlorophenyl)-benzoxazole meglumine having DSC as depicted in FIG. 1 and having TGA as depicted in FIG. 2.

O=C(O)c1ccc2nc(-c3cc(Cl)cc(Cl)c3)oc2c1 [6-carboxy-2-(3,5-dichlorophenyl)-benzoxazole meglumine]
water content after drying: not considerably reduced
